Test results as given in PubChem BioAssay (NCI).
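Protocol summary: plate cells (96-well), add compound at 5 concentrations, incubate 48 h, interpolate endpoints linearly. GI50: concentration for 50% inhibition of growth. TGI: total growth inhibition.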

Columns and labels:
Assay in all cases: NCI tumour cell line growth inhibition, 48 h
A549 NSCLC = test system: A549 NSCLC
BT-549 breast = test system: BT-549 breast
CCRF-CEM leukemia = test system: CCRF-CEM leukemia
HCT-116 colon = test system: HCT-116 colon
HCT-15 colon = test system: HCT-15 colon
M14 melanoma = test system: M14 melanoma
MCF7 breast = test system: MCF7 breast
T-47D breast = test system: T-47D breast
UO-31 renal = test system: UO-31 renal
SW-620 colon = test system: SW-620 colon

Row | Structure (SMILES) | TGI (A549 NSCLC) [µM] | TGI (BT-549 breast) [µM] | TGI (CCRF-CEM leukemia) [µM] | TGI (HCT-116 colon) [µM] | TGI (HCT-15 colon) [µM] | TGI (M14 melanoma) [µM] | TGI (MCF7 breast) [µM] | TGI (T-47D breast) [µM] | TGI (UO-31 renal) [µM] | TGI (SW-620 colon) [µM] | GI50 (A549 NSCLC) [µM] | GI50 (BT-549 breast) [µM] | GI50 (HCT-116 colon) [µM] | GI50 (HCT-15 colon) [µM] | GI50 (MCF7 breast) [µM] | GI50 (SW-620 colon) [µM] | GI50 (T-47D breast) [µM] | GI50 (UO-31 renal) [µM] | GI50 (CCRF-CEM leukemia) [µM] | GI50 (M14 melanoma) [µM]
1 | Cc1c(C(=O)OCc2ccccc2)[n+](=O)c2cc(Cl)c(Cl)cc2n1[O-] | 28 | 44.4 | 39.4 | 27.2 | 34.1 | 28.3 | 54.4 | 23.6 | 32 | – | – | – | – | – | – | – | – | – | – | –
2 | CC(C)(C)CC(C)(C)c1cc(O)c(O)c(CN2CCCCC2)c1 | 30.8 | 28.4 | – | 29.5 | 15.9 | 29 | 25.1 | 33.9 | 26.1 | 28 | – | – | – | – | – | – | – | – | – | –
3 | Cc1nnc2n1N=C(c1ccc(Cl)cc1Cl)/C(=C/c1ccc(-c3ccc([N+](=O)[O-])cc3Cl)o1)S2 | > 100 | 43.3 | – | 24.8 | 42.9 | – | 14.3 | > 100 | 31 | 33 | 31.7 | 22.1 | 12.3 | 16.9 | 2.06 | 13.3 | 83 | 14.8 | – | –
4 | COc1cnc2c(c1)C(=O)c1c-2n(CCCNCCO)c(=O)c2ccncc12 | 9.38 | 12.7 | 12.5 | 16.9 | 13.7 | 7.16 | 11.3 | 37.5 | 10.1 | 12.4 | 1.99 | 2.03 | 0.489 | 2.3 | 0.303 | 0.52 | 0.845 | 1.3 | 0.626 | 1.93
5 | CN(C)CCCNc1ccc2nnn3c4ccc(O)cc4c(=O)c1c23 | 16.9 | 33.9 | 38.2 | 16 | 19.7 | 21 | 24.8 | 40.9 | 9.79 | 17.2 | – | – | – | – | – | – | – | – | – | –
6 | C=C(C)CC1(O[Si](C)(C)C)C(=O)C(OCC)=C1OCC (centres undefined) | > 100 | > 100 | > 100 | > 100 | > 100 | > 100 | > 100 | > 100 | > 100 | > 100 | – | – | – | – | – | – | – | – | – | –
7 | CN(Cc1cnc2nc(N)nc(N)c2n1)c1ccc(C(=O)NC(CO)CCCO)cc1 (centres undefined) | – | > 100 | > 100 | > 100 | > 100 | > 100 | > 100 | > 100 | > 100 | > 100 | – | – | – | – | – | – | – | – | – | –
8 | C=CCC1C(O[Si](C)(C)C(C)(C)C)C(CO[Si](C)(C)C(C)(C)C)OC1n1ccc(=O)[nH]c1=O (centres undefined) | 2.91 | 3.42 | 2.86 | 2.5 | 2.64 | 2.96 | – | 4.37 | 2.83 | 2.84 | – | – | – | – | – | – | – | – | – | –
9 | CC1(C)CC(=O)C2(CC(CSc3ccccc3)C(CS(=O)(=O)c3ccccc3)C2)C(=O)C1 (centres undefined) | > 100 | > 100 | > 100 | > 100 | > 100 | > 100 | > 100 | > 100 | > 100 | > 100 | – | – | – | – | – | – | – | – | – | –
10 | COc1ccc(Nc2ccc3ccccc3c2-c2c(O)ccc3ccccc23)cc1 | – | 52 | 46.8 | 40.5 | 38.5 | – | 25.6 | 34 | 26.4 | 28.2 | – | – | – | – | – | – | – | – | – | –
11 | COc1ccc(C(=O)CC(c2ccccc2)[C@H]2C(c3ccc(OC)cc3)=Nc3c(nc(SC)n(C)c3=O)NC2c2ccccc2)cc1 (some centres undefined) | > 100 | > 100 | > 100 | > 100 | > 100 | > 100 | > 100 | > 100 | – | > 100 | – | – | – | – | – | – | – | – | – | –
12 | CCOP(=O)(OCC)/C(=C/c1cccs1)CC(C)=O | > 100 | > 100 | > 100 | > 100 | > 100 | > 100 | > 100 | > 100 | > 100 | > 100 | – | – | – | – | – | – | – | – | – | –
13 | CCOC(=O)Nn1c(CC#N)nnc1Cc1ccccc1 | > 100 | > 100 | – | > 100 | > 100 | > 100 | > 100 | > 100 | > 100 | > 100 | – | – | – | – | – | – | – | – | – | –
14 | C/C(=N\Nc1nc2ccccc2n1C)c1cc2ccccc2cn1 | 27.1 | 13.8 | > 54.3 | 5.83 | 20.7 | 2.81 | – | 5.66 | 5.03 | 11.3 | – | – | – | – | – | – | – | – | – | –
15 | Cc1nc(N)c(N2CCN(CN)CC2)c(=O)[nH]1 | > 100 | > 100 | > 100 | > 100 | > 100 | > 100 | > 100 | > 100 | > 100 | > 100 | – | – | – | – | – | – | – | – | – | –
16 | CCOP(=O)(O)CN1CCNCCN(CP(=O)(O)OCC)CCNCC1 | > 100 | > 100 | > 100 | > 100 | > 100 | – | > 100 | > 100 | > 100 | > 100 | – | – | – | – | – | – | – | – | – | –
17 | NCC(O)CSCc1ccc(Cl)cc1 (centres undefined) | > 100 | > 100 | > 100 | > 100 | > 100 | > 100 | > 100 | > 100 | > 100 | > 100 | – | – | – | – | – | – | – | – | – | –
18 | C#CCn1c(=O)c(C)cn(/C(=C\C(=O)OCC)C(=O)OCC)c1=O | 39.2 | 22.8 | 8 | 10.3 | 8.23 | 11.3 | 11.9 | 5.95 | 25.5 | > 100 | – | – | – | – | – | 2.14 | – | – | 0.7 | –
19 | COc1cc(C2C(Cl)C(=O)N2c2c(C)n(C)n(-c3ccccc3)c2=O)ccc1O (centres undefined) | 61.9 | 45 | 79.7 | 19.3 | – | 30.7 | 48.7 | > 100 | 32.9 | 36.4 | – | – | – | – | – | – | – | – | – | –
20 | Cc1cc2c([nH]c3ccccc32)c(O)c1-c1c(C)cc2c([nH]c3ccccc32)c1O | 26.8 | 33.6 | – | 27.2 | 23.8 | 29.8 | 25 | 31.3 | 25.7 | 50.8 | – | – | – | 10.1 | 11.2 | – | – | 13 | – | –
